Assay results reported in ChEMBL document CHEMBL4411296, “Design and development of Isatin-triazole hydrazones as potential inhibitors of microtubule affinity-regulating kinase 4 for the therapeutic management of cell proliferation and metastasis” (Eur J Med Chem, 2019).
Activity calls are given as the source filed them. The rule behind the calls is not given here.

Key:
HCT-15 = assay: Growth inhibition of human HCT15 cells assessed as cell growth at 10 uM after 48 hrs by sulforhodamine B assay relative to control; assay type: functional; conditions: HCT-15, 48 h, read-out: Activity
SW-620 = assay: Growth inhibition of human SW620 cells assessed as cell growth at 10 uM after 48 hrs by sulforhodamine B assay relative to control; assay type: functional; conditions: SW-620, 48 h, read-out: Activity
NCI-H460 = assay: Growth inhibition of human NCI-H460 cells assessed as cell growth at 10 uM after 48 hrs by sulforhodamine B assay relative to control; assay type: functional; conditions: NCI-H460, 48 h, read-out: Activity
UACC-257 = assay: Growth inhibition of human UACC257 cells assessed as cell growth at 10 uM after 48 hrs by sulforhodamine B assay relative to control; assay type: functional; conditions: UACC-257, 48 h, read-out: Activity
SF-295 = assay: Growth inhibition of human SF295 cells assessed as cell growth at 10 uM after 48 hrs by sulforhodamine B assay relative to control; assay type: functional; conditions: SF-295, 48 h, read-out: Activity
OVCAR-4 = assay: Growth inhibition of human OVCAR4 cells assessed as cell growth at 10 uM after 48 hrs by sulforhodamine B assay relative to control; assay type: functional; conditions: OVCAR-4, 48 h, read-out: Activity
MDA-MB-435S = assay: Induction of apoptosis in human MDA-MB-435S cells assessed as viable cells at IC50 after 24 hrs by Annexin V-FITC/propidium iodide staining-based flow cytometric analysis (reference value: 98.8%); assay type: functional
RPMI-8226 = assay: Growth inhibition of human RPMI8226 cells assessed as cell growth at 10 uM after 48 hrs by sulforhodamine B assay relative to control; assay type: functional; conditions: RPMI-8226, 48 h, read-out: Activity
A498 = assay: Growth inhibition of human A498 cells assessed as cell growth at 10 uM after 48 hrs by sulforhodamine B assay relative to control; assay type: functional; conditions: A498, 48 h, read-out: Activity
K562 = assay: Growth inhibition of human K562 cells assessed as cell growth at 10 uM after 48 hrs by sulforhodamine B assay relative to control; assay type: functional; conditions: K562, 48 h, read-out: Activity
OVCAR-5 = assay: Growth inhibition of human OVCAR5 cells assessed as cell growth at 10 uM after 48 hrs by sulforhodamine B assay relative to control; assay type: functional; conditions: OVCAR-5, 48 h, read-out: Activity
A549 = assay: Growth inhibition of human A549/ATCC cells assessed as cell growth at 10 uM after 48 hrs by sulforhodamine B assay relative to control; assay type: functional; conditions: A549, 48 h, read-out: Activity
[1] = target: PAS domain-containing serine/threonine-protein kinase (Homo sapiens) (UniProt Q96RG2); assay: Inhibition of PASK (unknown origin) at 10 uM after 60 mins by ADP-Glo luminescence assay
PAS domain-containing serine/threonine-protein kinase (Homo sapiens), sequence (Q96RG2 whole entry, the tested form may be a part): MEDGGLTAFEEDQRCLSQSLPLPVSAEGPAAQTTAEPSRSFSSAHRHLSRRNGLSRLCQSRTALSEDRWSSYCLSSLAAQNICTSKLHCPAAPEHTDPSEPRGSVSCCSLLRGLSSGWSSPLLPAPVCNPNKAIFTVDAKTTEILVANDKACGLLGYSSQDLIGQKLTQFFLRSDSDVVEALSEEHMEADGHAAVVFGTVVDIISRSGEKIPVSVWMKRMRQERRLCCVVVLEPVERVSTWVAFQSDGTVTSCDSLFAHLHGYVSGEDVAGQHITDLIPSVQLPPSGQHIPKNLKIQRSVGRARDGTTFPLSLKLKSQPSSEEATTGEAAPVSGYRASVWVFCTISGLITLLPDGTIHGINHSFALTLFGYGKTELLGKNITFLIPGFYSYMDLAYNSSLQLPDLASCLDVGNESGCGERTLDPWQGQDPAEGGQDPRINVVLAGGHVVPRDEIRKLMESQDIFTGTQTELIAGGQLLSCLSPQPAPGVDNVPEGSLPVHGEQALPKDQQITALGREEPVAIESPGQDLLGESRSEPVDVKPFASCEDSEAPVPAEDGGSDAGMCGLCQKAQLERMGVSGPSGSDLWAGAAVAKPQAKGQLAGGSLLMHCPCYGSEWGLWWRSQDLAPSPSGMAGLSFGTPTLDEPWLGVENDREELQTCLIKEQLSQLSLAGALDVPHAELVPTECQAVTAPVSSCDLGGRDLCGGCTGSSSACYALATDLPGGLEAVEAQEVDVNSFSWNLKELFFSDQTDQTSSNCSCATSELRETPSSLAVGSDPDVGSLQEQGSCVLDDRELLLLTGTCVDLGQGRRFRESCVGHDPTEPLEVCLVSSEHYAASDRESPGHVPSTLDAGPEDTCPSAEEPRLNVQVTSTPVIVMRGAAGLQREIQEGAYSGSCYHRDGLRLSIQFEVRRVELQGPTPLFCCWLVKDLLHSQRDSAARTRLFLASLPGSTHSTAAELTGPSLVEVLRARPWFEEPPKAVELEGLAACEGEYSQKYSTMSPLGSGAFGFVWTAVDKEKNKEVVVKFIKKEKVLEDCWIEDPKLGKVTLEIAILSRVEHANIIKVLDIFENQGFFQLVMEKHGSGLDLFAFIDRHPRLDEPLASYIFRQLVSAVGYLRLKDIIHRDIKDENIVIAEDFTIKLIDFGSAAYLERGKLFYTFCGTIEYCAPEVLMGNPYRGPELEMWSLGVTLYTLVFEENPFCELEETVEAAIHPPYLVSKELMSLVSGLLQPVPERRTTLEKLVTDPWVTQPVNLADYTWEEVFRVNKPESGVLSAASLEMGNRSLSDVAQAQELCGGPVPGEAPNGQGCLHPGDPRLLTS

MCF7 = assay: Antimigratory activity against human MCF7 cells at IC50 after 48 hrs by wound-healing assay; assay type: functional, cell-based
SR = assay: Growth inhibition of human SR cells assessed as cell growth at 10 uM after 48 hrs by sulforhodamine B assay relative to control; assay type: functional; conditions: read-out: Activity
SN12C = assay: Growth inhibition of human SN12C cells assessed as cell growth at 10 uM after 48 hrs by sulforhodamine B assay relative to control; assay type: functional; conditions: read-out: Activity
LOX IMVI = assay: Growth inhibition of human LOXIMVI cells assessed as cell growth at 10 uM after 48 hrs by sulforhodamine B assay relative to control; assay type: functional; conditions: read-out: Activity
KM12 = assay: Growth inhibition of human KM12 cells assessed as cell growth at 10 uM after 48 hrs by sulforhodamine B assay relative to control; assay type: functional; conditions: KM12, 48 h, read-out: Activity
SF-539 = assay: Growth inhibition of human SF539 cells assessed as cell growth at 10 uM after 48 hrs by sulforhodamine B assay relative to control; assay type: functional; conditions: SF-539, 48 h, read-out: Activity
HL-60(TB) = assay: Growth inhibition of human HL-60(TB) cells assessed as cell growth at 10 uM after 48 hrs by sulforhodamine B assay relative to control; assay type: functional; conditions: HL-60, 48 h, read-out: Activity
SF-268 = assay: Growth inhibition of human SF268 cells assessed as cell growth at 10 uM after 48 hrs by sulforhodamine B assay relative to control; assay type: functional; conditions: SF-268, 48 h, read-out: Activity
MDA-MB-435 = assay: Growth inhibition of human MDA-MB-435 cells assessed as cell growth at 10 uM after 48 hrs by sulforhodamine B assay relative to control; assay type: functional; conditions: MDA-MB-435, 48 h, read-out: Activity
[2] = target: Serine/threonine-protein kinase Chk2 (Homo sapiens) (UniProt O96017); assay: Inhibition of CHK2 (unknown origin) at 10 uM after 60 mins by ADP-Glo luminescence assay
Serine/threonine-protein kinase Chk2 (Homo sapiens), sequence (O96017 whole entry): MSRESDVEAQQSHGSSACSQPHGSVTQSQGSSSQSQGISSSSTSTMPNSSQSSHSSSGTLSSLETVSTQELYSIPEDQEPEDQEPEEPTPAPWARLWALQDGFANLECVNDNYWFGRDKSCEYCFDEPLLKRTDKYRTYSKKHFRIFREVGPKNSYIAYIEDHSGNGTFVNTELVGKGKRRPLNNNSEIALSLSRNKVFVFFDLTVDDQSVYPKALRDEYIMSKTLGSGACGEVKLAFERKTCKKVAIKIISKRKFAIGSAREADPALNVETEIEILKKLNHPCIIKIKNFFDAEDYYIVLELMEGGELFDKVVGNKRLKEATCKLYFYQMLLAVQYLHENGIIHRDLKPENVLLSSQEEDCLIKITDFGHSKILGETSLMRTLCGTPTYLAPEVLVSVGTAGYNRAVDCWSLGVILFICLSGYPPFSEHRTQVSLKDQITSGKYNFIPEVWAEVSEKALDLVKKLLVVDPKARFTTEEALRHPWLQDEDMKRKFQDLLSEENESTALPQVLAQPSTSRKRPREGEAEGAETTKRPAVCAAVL

SK-MEL-5 = assay: Growth inhibition of human SK-MEL-5 cells assessed as cell growth at 10 uM after 48 hrs by sulforhodamine B assay relative to control; assay type: functional; conditions: SK-MEL-5, 48 h, read-out: Activity
[3] = target: Calcium/calmodulin-dependent protein kinase type 1 (Homo sapiens) (UniProt Q14012); assay: Inhibition of CAMKI (unknown origin) at 10 uM after 60 mins by ADP-Glo luminescence assay
Calcium/calmodulin-dependent protein kinase type 1 (Homo sapiens), sequence (Q14012 whole entry, looked up): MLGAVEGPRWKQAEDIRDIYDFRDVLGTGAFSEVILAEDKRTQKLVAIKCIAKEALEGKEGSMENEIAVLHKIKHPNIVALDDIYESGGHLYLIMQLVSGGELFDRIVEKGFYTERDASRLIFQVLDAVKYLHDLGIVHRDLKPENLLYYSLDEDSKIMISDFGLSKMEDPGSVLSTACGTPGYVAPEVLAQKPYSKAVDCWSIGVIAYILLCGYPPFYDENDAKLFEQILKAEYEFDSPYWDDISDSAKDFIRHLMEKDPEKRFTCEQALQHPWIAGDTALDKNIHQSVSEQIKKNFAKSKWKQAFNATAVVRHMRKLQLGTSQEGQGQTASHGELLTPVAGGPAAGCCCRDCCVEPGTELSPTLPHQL

HCT-116 = assay: Growth inhibition of human HCT116 cells assessed as cell growth at 10 uM after 48 hrs by sulforhodamine B assay relative to control; assay type: functional; conditions: HCT-116, 48 h, read-out: Activity
CAKI-1 = assay: Growth inhibition of human Caki1 cells assessed as cell growth at 10 uM after 48 hrs by sulforhodamine B assay relative to control; assay type: functional; conditions: CAKI-1, 48 h, read-out: Activity
HepG2 [4] = assay: Induction of apoptosis in human HepG2 cells assessed as viable cells at IC50 after 24 hrs by Annexin V-FITC/propidium iodide staining-based flow cytometric analysis (reference value: 97.6%); assay type: functional
HepG2 [5] = assay: Antiproliferative activity against human HepG2 cells assessed as cell viability after 48 hrs by MTT assay; conditions: HepG2, 48 h
[6] = target: Serine/threonine-protein kinase D1 (Homo sapiens) (UniProt Q15139); assay: Inhibition of PKCmu (unknown origin) at 10 uM after 60 mins by ADP-Glo luminescence assay
Serine/threonine-protein kinase D1 (Homo sapiens), sequence (Q15139 whole entry): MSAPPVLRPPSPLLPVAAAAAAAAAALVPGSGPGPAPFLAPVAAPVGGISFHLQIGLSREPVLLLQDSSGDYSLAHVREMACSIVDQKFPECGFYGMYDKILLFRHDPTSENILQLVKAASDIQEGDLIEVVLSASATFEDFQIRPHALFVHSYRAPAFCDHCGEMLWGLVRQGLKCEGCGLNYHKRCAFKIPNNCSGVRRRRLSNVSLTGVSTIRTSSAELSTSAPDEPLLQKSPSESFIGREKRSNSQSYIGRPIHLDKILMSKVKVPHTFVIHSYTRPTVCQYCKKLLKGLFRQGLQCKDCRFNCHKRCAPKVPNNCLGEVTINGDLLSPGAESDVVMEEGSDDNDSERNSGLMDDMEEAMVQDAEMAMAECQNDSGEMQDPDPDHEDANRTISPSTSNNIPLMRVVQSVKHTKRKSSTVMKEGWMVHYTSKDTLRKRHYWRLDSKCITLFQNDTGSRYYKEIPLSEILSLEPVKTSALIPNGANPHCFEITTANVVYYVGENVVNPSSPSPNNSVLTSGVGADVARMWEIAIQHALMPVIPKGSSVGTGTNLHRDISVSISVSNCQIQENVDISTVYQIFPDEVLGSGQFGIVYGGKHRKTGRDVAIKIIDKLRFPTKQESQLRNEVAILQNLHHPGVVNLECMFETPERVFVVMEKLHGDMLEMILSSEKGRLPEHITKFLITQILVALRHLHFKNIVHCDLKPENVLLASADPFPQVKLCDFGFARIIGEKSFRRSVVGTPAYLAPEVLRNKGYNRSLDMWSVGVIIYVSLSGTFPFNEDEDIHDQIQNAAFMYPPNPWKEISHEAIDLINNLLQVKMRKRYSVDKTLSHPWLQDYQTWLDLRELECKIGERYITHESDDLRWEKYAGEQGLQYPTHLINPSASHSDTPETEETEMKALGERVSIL

OVCAR-8 = assay: Growth inhibition of human OVCAR8 cells assessed as cell growth at 10 uM after 48 hrs by sulforhodamine B assay relative to control; assay type: functional; conditions: OVCAR-8, 48 h, read-out: Activity
OVCAR-3 = assay: Growth inhibition of human OVCAR3 cells assessed as cell growth at 10 uM after 48 hrs by sulforhodamine B assay relative to control; assay type: functional; conditions: OVCAR-3, 48 h, read-out: Activity
UACC-62 = assay: Growth inhibition of human UACC62 cells assessed as cell growth at 10 uM after 48 hrs by sulforhodamine B assay relative to control; assay type: functional; conditions: UACC-62, 48 h, read-out: Activity
Malme-3M = assay: Growth inhibition of human MALME-3M cells assessed as cell growth at 10 uM after 48 hrs by sulforhodamine B assay relative to control; assay type: functional; conditions: read-out: Activity

With COc1ccc(Cn2cc(C(=O)N/N=C3/C(=O)Nc4c(C)cccc43)nn2)cc1 the growth at 10 µM (HCT-15) was 68%, the growth at 10 µM (SW-620) was 57.5% and the growth at 10 µM (NCI-H460) was 73%. For the same compound, the growth at 10 µM (UACC-257) was 93.7%, the growth at 10 µM (SF-295) was 111% and the growth at 10 µM (OVCAR-4) was -28.2%. For the same compound, the Activity (MDA-MB-435S) was 66.3%, the growth at 10 µM (RPMI-8226) was 90% and the growth at 10 µM (A498) was 101%. It also gave a growth at 10 µM (K562) of 63.2%, a growth at 10 µM (OVCAR-5) of 93.6% and a growth at 10 µM (A549) of 85.3%. For the same compound, the inhibition [1] was “inactive”, the Activity (MCF7) was “Active” and the growth at 10 µM (SR) was 76.6%. The growth at 10 µM (SN12C) was 62.1%, the growth at 10 µM (LOX IMVI) was 75.3% and the growth at 10 µM (KM12) was 95.6%. For the same compound, the growth at 10 µM (SF-539) was 80.1%, the growth at 10 µM (HL-60(TB)) was 78.9% and the growth at 10 µM (SF-268) was 87.3%. For the same compound, the growth at 10 µM (MDA-MB-435) was 82%, the inhibition [2] was “inactive” and the growth at 10 µM (SK-MEL-5) was 93.8%. The inhibition [3] was “inactive”, the growth at 10 µM (HCT-116) was 7.1% and the growth at 10 µM (CAKI-1) was 77.1%. For the same compound, the Activity (HepG2 [4]) was 59.4%, the IC50 (HepG2 [5]) was 8.14 µM and the inhibition [6] was “inactive”. For the same compound, the growth at 10 µM (OVCAR-8) was 67.6%, the growth at 10 µM (OVCAR-3) was 46.7% and the growth at 10 µM (UACC-62) was 74.1%. For the same compound, the growth at 10 µM (Malme-3M) was 40.5%.
